{"source": "paper PMC9804781", "about": "“Identification of a Novel Pseudo‐Natural Product Type IV IDO1 Inhibitor Chemotype” (Angewandte Chemie (International Ed. in English), 2022)", "key": {"His-tagged TDO": {"molecular_target": "T1, His-tagged TDO (Homo sapiens, UniProt P48775)", "T1 construct": "His; purchased BPS Bioscience 72035 (kit)", "T1 sequence (P48775 whole entry)": "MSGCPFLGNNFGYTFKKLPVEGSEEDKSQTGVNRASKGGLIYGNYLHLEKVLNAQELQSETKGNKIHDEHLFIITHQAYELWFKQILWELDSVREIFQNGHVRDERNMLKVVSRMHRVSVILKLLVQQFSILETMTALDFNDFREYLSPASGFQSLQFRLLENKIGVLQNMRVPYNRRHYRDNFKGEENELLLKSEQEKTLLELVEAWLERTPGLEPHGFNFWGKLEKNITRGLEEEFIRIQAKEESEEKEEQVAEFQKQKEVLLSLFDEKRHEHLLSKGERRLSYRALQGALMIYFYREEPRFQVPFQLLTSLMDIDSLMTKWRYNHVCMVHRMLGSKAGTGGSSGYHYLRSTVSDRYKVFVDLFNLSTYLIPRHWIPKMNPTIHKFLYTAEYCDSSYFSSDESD", "experiment": "TDO Activity Assay", "format": "biochemical", "conditions": "120 min at 37 °C", "procedure": "Inhibition of tryptophan 2,3-dioxygenase (TDO) was tested using the Universal IDO1/IDO2/TDO Inhibitor Screening Assay Kit (cat# 72035, BPS Bioscience, US). 500 ng His-tagged TDO in TDO Assay Buffer was incubated with Reaction Solution and 50 µM Test Inhibitor (0.5% (v/v) DMSO) for 120 min at 37°C with slow shaking in the dark. Afterwards, absorbance at 321 nm was recorded on the Spark® Multimode Microplate Reader (Tecan, AT), all values were subtracted by the background and normalized to the DMSO control. […]\n(v/v) component 2 in component 1) and 50 µM Test Inhibitor (0.5% (v/v) DMSO) for 90 min at 30°C with slow shaking in the dark prior to initiation of the reaction by addition of 20% (v/v) IDO2 Substrate. Samples were incubated for 120 min at 30°C with slow shaking in the dark. […]"}, "HeLa cells": {"tested_on": "HeLa cells", "design": "method as in ref 9a = [9]; 9", "conditions": "ref 9a; cited from earlier work"}, "His-tagged IDO2": {"molecular_target": "T2, His-tagged IDO2 (Homo sapiens, UniProt Q6ZQW0)", "T2 construct": "His; purchased BPS Bioscience 72035 (kit)", "T2 sequence (Q6ZQW0 1-407)": "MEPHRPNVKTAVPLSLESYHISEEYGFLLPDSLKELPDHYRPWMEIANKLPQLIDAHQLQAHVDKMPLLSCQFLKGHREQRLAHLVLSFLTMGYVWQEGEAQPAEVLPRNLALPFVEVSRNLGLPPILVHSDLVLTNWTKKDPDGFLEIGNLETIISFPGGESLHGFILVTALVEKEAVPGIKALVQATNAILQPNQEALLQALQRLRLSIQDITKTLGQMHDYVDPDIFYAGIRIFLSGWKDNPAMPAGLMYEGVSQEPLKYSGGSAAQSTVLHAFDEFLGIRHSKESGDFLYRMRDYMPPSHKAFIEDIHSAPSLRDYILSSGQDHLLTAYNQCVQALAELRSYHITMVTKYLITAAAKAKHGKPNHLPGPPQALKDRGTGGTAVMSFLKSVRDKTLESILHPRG", "experiment": "IDO2 Activity Assay", "format": "biochemical", "conditions": "90 min + 120 min at 30 °C", "procedure": "Inhibition of indoleamine 2,3-dioxygenase 2 (IDO2) was tested using the Universal IDO1/IDO2/TDO Inhibitor Screening Assay Kit (cat# 72035, BPS Bioscience, US). 10 µg His-tagged IDO2 in IDO2 Assay Buffer was incubated with Complete IDO2 Reaction Solution (1% (v/v) component 2 in component 1) and 50 µM Test Inhibitor (0.5% (v/v) DMSO) for 90 min at 30°C with slow shaking in the dark prior to initiation of the reaction by addition of 20% (v/v) IDO2 Substrate. Samples were incubated for 120 min at 30°C with slow shaking in the dark. Afterwards, absorbance at 321 nm was recorded on the Spark® Multimode Microplate Reader (Tecan, AT), all values were subtracted by the background and normalized to the DMSO control."}, "purified IDO1": {"tested_on": "purified IDO1", "design": "method as in ref 36b = [36]; 36", "conditions": "ref 36b; cited from earlier work"}, "hedgehog signaling": {"tested_on": "hedgehog signaling", "experiment": "Automated screen: hedgehog signaling", "format": "cell-based", "conditions": "automated screening assay"}, "autophagy [1]": {"tested_on": "autophagy", "experiment": "Automated screen: autophagy induction under fed condition", "format": "cell-based", "conditions": "automated screening assay"}, "autophagy [2]": {"tested_on": "autophagy", "experiment": "Automated screen: autophagy induction in the presence of chloroquine", "format": "cell-based", "conditions": "automated screening assay"}, "Wnt signaling": {"tested_on": "Wnt signaling", "experiment": "Automated screen: Wnt signaling", "format": "cell-based", "conditions": "automated screening assay"}, "alkaline phosphatase": {"tested_on": "alkaline phosphatase", "experiment": "Automated screen: alkaline phosphatase", "conditions": "automated screening assay"}, "autophagy [3]": {"tested_on": "autophagy", "experiment": "Automated screen: autophagy inhibition in the presence of rapamycin", "format": "cell-based", "conditions": "automated screening assay"}, "BMP signaling": {"tested_on": "BMP signaling", "experiment": "Automated screen: BMP signaling", "format": "cell-based", "conditions": "automated screening assay"}, "[4]": {"tested_on": "Kyn levels in BxPC-3 cells", "experiment": "Automated (high-throughput) Kyn assay in BxPC-3 cells (Kyn sensor)", "format": "cell-based", "procedure": "Mammalian cell lines were maintained at 37°C and 5% CO2 in a humidified atmosphere and sub-cultivated twice a week. All cell lines were tested regularly for mycoplasma contamination and were always free of mycoplasma. BxPC-3 cells (DSMZ#760) were grown in RPMI-1640 medium supplemented with 10% FBS, 2 mM L-glutamine, 1 mM sodium pyruvate, 4.5 g/L glucose, 10 mM […]\nHEPES and 1.5 g/L NaHCO3. […]\nHigh-throughput Kyn assay\nAutomated screening for modulators of Kyn levels in BxPC-3 cells was performed as published earlier.[2] Briefly, BxPC-3 cells (1,000 cells/well) were seeded in black 1536-well plates prior to incubation for 24 h and subsequent treatment with compounds, 380 µM L-Trp and 50 ng/mL IFN-γ for 48 h. Afterwards, trichloroacetic acid was added to a final concentration of 7% (v/v), the plates were incubated for 10 min at 37°C and centrifuged for 10 min at 1620 x g. Kyn was detected by addition of 17.5 µM Kyn sensor[14] in assay buffer (excitation: 535 nm, emission: […]"}, "glucose uptake": {"tested_on": "glucose uptake", "experiment": "Automated screen: glucose uptake", "format": "cell-based", "conditions": "automated screening assay"}, "Kyn levels in HeLa cells": {"tested_on": "Kyn levels in HeLa cells", "experiment": "Manual Kyn assay in HeLa cells (p-DMAB detection)", "format": "cell-based", "conditions": "IFN-γ, L-Trp, compounds 48 h, p-DMAB, mean n=3 ±SD, read-out: Kyn Assay IC50", "procedure": "Mammalian cell lines were maintained at 37°C and 5% CO2 in a humidified atmosphere and sub-cultivated twice a week. All cell lines were tested regularly for mycoplasma contamination and were always free of mycoplasma. BxPC-3 cells (DSMZ#760) were grown in RPMI-1640 medium supplemented with 10% FBS, 2 mM L-glutamine, 1 mM sodium pyruvate, 4.5 g/L glucose, 10 mM HEPES and 1.5 g/L NaHCO3. HeLa cells (DSMZ#57) were cultivated in DMEM supplemented with 10% FBS, 4.5 g/L glucose, 4 mM L-glutamine 1 mM sodium pyruvate, 1% non-essential amino acids, 3.7 g/L NaHCO3. SKOV-3 cells (ATCC#HTB-77) were maintained in modified McCoy’s 5A medium supplemented with 10% FBS, 1.5 mM L-glutamine and 2.2 g/L NaHCO3. […]\nFor manual testing, BxPC-3, HeLa or SKOV-3 cells (20,000 cells/well, 5,000 cells/well or 6,250 cells/well, respectively) were seeded in 96-well plates (BxPC-3 and HeLa) or 384-well plates (SKOV-3) in medium without phenol red. After 24 h, the IDO1 pathway was induced by addition of 50 ng/mL (BxPC-3 and HeLa) or 17.6 ng/mL IFN-γ (SKOV-3) and 380 µM (BxPC-3), 164.15 µM (HeLa) or 450 µM L-Trp (SKOV-3) with simultaneous treatment with the compounds at the indicated concentrations followed by incubation for 48 h. For the hemin competition assay, hemin was added together with IFN-γ, L-Trp and the compounds. Subsequently, trichloroacetic acid was added to a final concentration of 7% (v/v), the plates were incubated for 15 min at room […]\ntemperature and centrifuged for 10 min at 1800 x g. Afterwards, an equal volume of freshly prepared 2% (w/v) p-DMAB in glacial acetic acid (Ehrlich reagent) was added prior to measuring the absorbance at 492 nm and 650 nm on the Spark® Multimode Microplate Reader (Tecan, AT).\nTo determine the Kyn levels, the absorbance of the Kyn-p-DMAB adduct A492 was subtracted by the background absorbance A650 and normalized to the DMSO control. Data analysis was performed using a non-linear regression curve fit and GraphPad Prism 9.0 (GraphPad Software, Inc, US) to generate dose-response curves and obtain IC50 values. […]\nSubsequently, 10 mM ascorbic acid, 10 μM methylene blue, 2 mM L-Trp and 100 μg/mL catalase were added and samples were incubated for 60 min at room temperature or 37°C. […]"}}, "note": "Where two headings read alike, the source gives them in different places."}
{"smiles": "C[C@@H](C(=O)Nc1ccc(Cl)cc1)C1CCC(c2ccnc3ccc(F)cc23)CC1", "note": "(stereo partly shown) [BMS-986205]", "values": [{"measurement": "inhibition of TDO (result in words)", "setting": "His-tagged TDO; 50 µM", "value": "did not inhibit"}, {"measurement": "IC50", "setting": "HeLa cells", "value": 4.2, "unit": "nM"}, {"measurement": "inhibition of IDO2 (result in words)", "setting": "His-tagged IDO2; 50 µM", "value": "did not inhibit"}]}
{"smiles": "NS(=O)(=O)NCCNc1nonc1C(=NO)Nc1ccc(F)c(Br)c1", "note": "[epacadostat]", "values": [{"measurement": "reduction of TDO activity", "setting": "His-tagged TDO; 50 μM, n=3", "value": "75.5±4.3", "unit": "%"}, {"measurement": "IC50", "setting": "purified IDO1", "value": 73, "unit": "nM"}, {"measurement": "selectivity over IDO2", "setting": "purified IDO1", "value": "> 1000", "unit": "fold"}, {"measurement": "selectivity over TDO", "setting": "purified IDO1", "value": "> 1000", "unit": "fold"}, {"measurement": "reduction of IDO2 activity", "setting": "His-tagged IDO2; 50 μM, n=3", "value": "49.9±0.3", "unit": "%"}]}
{"smiles": "CCOC(=O)C1=CC[C@](C(=O)OC)(c2cc3ccccc3n2C)N(S(=O)(=O)c2ccccc2[N+](=O)[O-])[C@@H]1C(=O)OC(C)(C)C", "note": "[Compound 3b]", "values": [{"measurement": "hedgehog signaling, IC50/EC50", "setting": "hedgehog signaling", "value": "6.33 ± 0.69", "unit": "µM"}, {"measurement": "hedgehog signaling, inhibition", "setting": "hedgehog signaling", "value": "73.0 ± 10.0", "unit": "%"}, {"measurement": "autophagy induction under fed condition, IC50/EC50", "setting": "autophagy [1]", "value": "inactive"}, {"measurement": "autophagy induction under fed condition, inhibition", "setting": "autophagy [1]", "value": "0.33 ± 0.47", "unit": "%"}, {"measurement": "autophagy induction in the presence of chloroquine, IC50/EC50", "setting": "autophagy [2]", "value": "inactive"}, {"measurement": "autophagy induction in the presence of chloroquine, inhibition", "setting": "autophagy [2]", "value": "-3.67 ± 0.94", "unit": "%"}, {"measurement": "Wnt signaling, inhibition", "setting": "Wnt signaling", "value": "45.33 ± 1.89", "unit": "%"}, {"measurement": "alkaline phosphatase, IC50/EC50", "setting": "alkaline phosphatase", "value": "inactive"}, {"measurement": "autophagy inhibition in the presence of rapamycin, inhibition", "setting": "autophagy [3]", "value": "10.50 ± 9.50", "unit": "%"}, {"measurement": "BMP signaling, inhibition", "setting": "BMP signaling", "value": 37, "unit": "%"}, {"measurement": "effect on cellular kynurenine (Kyn) levels", "setting": "[4]; BxPC-3 cells stimulated with IFN-γ", "value": "selectively decreased"}, {"measurement": "kynurenine levels, IC50/EC50", "setting": "[4]; automated screening assay", "value": "0.63 ± 0.32", "unit": "µM"}, {"measurement": "kynurenine levels, inhibition", "setting": "[4]; automated screening assay", "value": "94.0 ± 1", "unit": "%"}, {"measurement": "glucose uptake, inhibition", "setting": "glucose uptake", "value": 17, "unit": "%"}, {"measurement": "IC50", "setting": "Kyn levels in HeLa cells; listed as 3b^a", "value": "2440 ± 560", "unit": "nM"}, {"measurement": "IC50", "setting": "Kyn levels in HeLa cells; listed as 3b^b", "value": "660 ± 50", "unit": "nM"}, {"measurement": "IC50", "setting": "Kyn levels in HeLa cells", "value": "490 ± 100", "unit": "nM"}]}
